Measurements from patent publication US7906484B2, “Complex for transferring an anionic substance into a cell” (Alnylam Pharmaceuticals, Inc., priority 2006, dated 2011).

What was measured:
[1] = tested on: E6AP mRNA in HCT116 cells; test: siRNA AD-8724 delivery into HCT116 cells, inhibition of E6AP mRNA expression by bDNA assay; type: cell-based, human; conditions: for capacity for cross membrane transport of siRNA (quantity not given): 37° C., siRNA/peptide conc. 250 nM/2.5 μM
Method: All further experiments were carried out using HCT116 cells and inhibition of E6AP expression as readout.
HCT116-cells were obtained from the American Type Culture Collection (ATCC# CCL-247). They were cultured in McCoy's 5A medium (Biochrom AG, Berlin, Germany, Cat.# F1015) containing 10% fetal calf serum (FCS; Biochrom AG, Berlin, Germany, Cat.# S0115) and 2 mM L-Glutamin (Biochrom AG, Berlin, Germany, Cat.#: K0283) (standard growth medium). For incubation with peptide/siRNA, complexes, the medium was replaced by serum-free McCoy's 5A medium containing 2 mM L-Glutamin (serum free medium). After incubation with complexes for 4 h, McCoy's 5A medium containing 30% fetal calf serum and 2 mM L-Glutamin (triple FCS medium) was added to restore an overall 10% FCS in the medium.
The E6AP-specific siRNA denoted AD-8724 herein was used, having the following sequences: antisense strand: 5′-ucacauuccacguuaggugTsT-3′ (SEQ ID NO:51), sense strand 5′-caccuaacguggaaugugaTsT-3′; (SEQ ID NO:52; lower case letters: ribonucleotides; s: phosphorothioate backbone linkage). As a negative control, an siRNA specific for eGFP, denoted AD-5107 herein, was used, having the following sequences: antisense strand: 5′-aagucgugcugcuucauguggOMesuOMesc-3′ (SEQ ID NO:19), sense strand 5′-[…]-3′ (SEQ ID NO:18; lower case letters: ribonucleotides; subscript OMe: 2′-O-methyl-ribonucleotide; s: phosphorothioate backbone linkage). In addition to the non-specific control siRNA AD-5107, mock transfected cells treated with standard growth medium only were used as negative controls. As a positive control, AD-8724 was transfected into the cells using Lipofectamine2000™ (Invitrogen, Karlsruhe, Germany, Cat. No. 11668-019). As a further control, AD-5107 was transfected into cells using Lipofectamine2000™. All assays were performed in quadruplicates.
SiRNA/peptide complexes were prepared by mixing a solution of the siRNA in deionized water with a solution of the peptide in deionized water at the appropriate concentrations to give the desired ratio of siRNA/peptide at the desired concentration of the complex. The mixture was incubated at room temperature for 30 min and kept at 4° C. until use, and used within 24 h.
For transfections with siRNA/peptide complexes, 1.5×10^5 HCT116-cells per well in 150 μl standard growth medium were seeded into polystyrene 96 well plates and grown for 24 h at 37° C. in an atmosphere containing 5% CO2. The medium was removed by aspiration, and 90 μl serum-free medium and 10 μl of siRNA/peptide complex solution were added. Cells were incubated for 4 h at 37° C./5% CO2, 50 μl triple FCS medium were added, and the cells incubated for another 20 h under identical conditions. Subsequently, E6AP mRNA content was determined as described below.
For Lipofectamine2000™ transfections, 0.5 μl Lipofectamine2000™ were mixed with 12 μl OptiMem™ (Invitrogen, Karlsruhe, Germany, Cat. No. 11058-021) and incubated for 15 min. 1 μl of a 5 μM solution of the respective siRNA in PBS (Biochrom AG, Berlin, Germany, Cat-No: L182-05) were added to 11.5 μl OptiMeM™, mixed with the Lipofectamine2000™/OptiMem™ solution, and incubated for further 15 min. 1.5×10^5 HCT116-cells per well in 150 μl standard growth medium were grown for 24 h as described above, the growth medium removed from the cells by aspiration, and 75 μl fresh standard growth medium and the 25 μl of the siRNA/Lipofectamine2000™ mix were added to the well, to give a final siRNA concentration of 50 nM. The cells were incubated for 24 h at 37° C./5% CO2 and E6AP mRNA concentration determined.
The QuantiGene™ bDNA-kit from Panomics, Inc., Fremont, USA, was used according to manufacturer's instructions. Briefly, cells were lysed by adding 50 μl of Lysis Mixture (from QuantiGene bDNA-kit) to each well and incubation at 53° C. for 1 h. […]

eGFP-mRNA = test: Influence of peptide/siRNA ratio on siRNA activity in HCT116 cells; type: cell-based; conditions: 250 nM siRNA
Method: The optimal ratio of (peptide):(anionic substance) for complex formation, was determined in section 3 above to lie in the range of 8:1 to 13:1 by titrating a fixed concentration of the anionic substance with increasing amounts of the peptide, and monitoring complex formation by electrophoresis of the mixture. To further validate and possibly narrow down the optimum ratio of peptide/anionic substance, an assay with a functional readout was performed. HCT116 cells were incubated with siRNA complexes as described above at concentrations such that the amount of siRNA in the incubation mixture corresponds to a 250 nM concentration of the siRNA, and the peptide/siRNA ratio was 8:1, 10:1, 12:1, or 14:1.

[2] = tested on: E6AP mRNA in HCT116 cells; test: siRNA AD-8724 delivery into HCT116 cells, inhibition of E6AP mRNA expression by bDNA assay; type: cell-based, human; conditions: 4° C., siRNA/peptide conc. 250 nM/2.5 μM
[3] = tested on: ENaC-alpha mRNA in H441 cells; test: siRNA delivery into H441 cells, ENaC-alpha mRNA quantified by bDNA assay; type: cell-based, human; conditions: AD-7007
Method: In order to test the potential of adding Histidine residues for improving the cross-membrane transport properties of peptides, we synthesized a modified ppTG20, termed ppTGHis herein, wherein 4 consecutive Histidine moieties were added to the C-terminus of ppTG20. We then compared the transport of siRNAs complexed with ppTG20 or ppTGHis into H441 cells, as evaluated by the ability of siRNAs to inhibit the expression of a gene constitutively expressed in H441 cells, ENaC-alpha. […]
For transfection with peptide/siRNA complexes, H441 cells were seeded at 1.5×10^4 cells/well on 96-well plates (Greiner Bio-One GmbH, Frickenhausen, Germany) in 75 μl of growth medium. […] Thereafter, the cells were lysed by adding 50 μl of lysis mixture (content of the QuantiGene bDNA-kit from Panomics, Inc., Fremont, USA) to each well containing 100 μl of growth medium at 53° C. for 30 min, and ENaC mRNA levels were subsequently quantified with the Quantigene Explore Kit (Panomics, Inc., Dumbarton Circle Fremont, USA, cat. No. QG-000-02) according to the manufacturer's protocol. Finally, chemoluminescence was measured in a Victor2-Light (Perkin Elmer, Wiesbaden, Germany) as RLUs (relative light units) and values obtained with the hENaC probeset were normalized to the respective GAPDH values for each well (probe sequences shown in Table 2 and Table 3). […]

[4] = AD-8724, siRNA/peptide conc. 25 nM/250 nM
[5] = AD-8724, siRNA/peptide conc. 250 nM/2.5 μM
[6] = AD-8724, siRNA/peptide conc. 1 μM/10 μM
[7] = siRNA AD-8724 250 nM, molar peptide/siRNA ratio 12.5:1

Sequence | capacity for cross membrane transport of siRNA (quantity not given) [1] | remaining E6AP mRNA (in % of mock) [1, 4] [%] | remaining E6AP mRNA (in % of mock) [1, 5] [%] | remaining E6AP mRNA (in % of mock) [1, 6] [%] | remaining E6AP mRNA (in % of mock) [1, 7] [%] | Remaining eGFP-mRNA in % of mock-transfected controls (eGFP-mRNA; peptide/siRNA ratio 8:1) [%] | Remaining eGFP-mRNA in % of mock-transfected controls (eGFP-mRNA; peptide/siRNA ratio 10:1) [%] | Remaining eGFP-mRNA in % of mock-transfected controls (eGFP-mRNA; peptide/siRNA ratio 12:1) [%] | Remaining eGFP-mRNA in % of mock-transfected controls (eGFP-mRNA; peptide/siRNA ratio 14:1) [%] | capacity for cross membrane transport of siRNA (quantity not given) [2] [%] | transfection efficiency and resulting siRNA activity compared with Lipofectamine [3] | transfection efficiency and resulting siRNA activity relative to ppTG20 [3]
RLFRALLRLLRSLWRLLRRA [AP-4] | 30 ± 5% RT | 96 ± 24 | 49 ± 11 | 37 ± 9 | 34 ± 6 | 23 ± 6 | 18 ± 6 | 52 ± 6 | 43 ± 4 | 56 ± 4 |  | 
HLFRALLRLLRHLWRLLLRA [AP-10] | 13 ± 8% | 98 ± 8 | 28 ± 4 | 17 ± 1 | 41 ± 21 | 42 ± 3 | 24 ± 4 | 24 ± 2 | 32 ± 4 | 81 ± 16 |  | 
GLFRALLRLLRSLWRLLLRAHHHH [ppTGHis, ppTG20 with 4 histidines added to the C-terminus] |  |  |  |  |  |  |  |  |  |  | comparable to that of Lipofectamine™ | approximately 10 fold
